Results from ChEMBL document CHEMBL4507257, “Data for DCP probe ABT-100” (2021).

Tests used:
[1] = target: Mitogen-activated protein kinase 1 (Homo sapiens) (UniProt P28482); details: Compound concentration 1000.0 nM
[2] = target: Serine/threonine-protein kinase PknB (Mycobacterium tuberculosis) (UniProt P9WI81); details: Compound concentration 1000.0 nM
[3] = target: Cyclin-dependent kinase 16 (Homo sapiens) (UniProt Q00536); details: Compound concentration 1000.0 nM
[4] = target: Ephrin type-A receptor 3 (Homo sapiens) (UniProt P29320); details: Compound concentration 1000.0 nM
[5] = target: Fibroblast growth factor receptor 3 (Homo sapiens) (UniProt P22607); details: Compound concentration 1000.0 nM
[6] = target: Phosphatidylinositol 4,5-bisphosphate 3-kinase catalytic subunit gamma isoform (Homo sapiens) (UniProt P48736); details: Compound concentration 1000.0 nM
[7] = target: ALK tyrosine kinase receptor (Homo sapiens) (UniProt Q9UM73); details: Compound concentration 1000.0 nM
[8] = target: Ribosomal protein S6 kinase alpha-2 (Homo sapiens) (UniProt Q15349); details: Compound concentration 1000.0 nM
[9] = target: Sodium-dependent noradrenaline transporter (Homo sapiens) (UniProt P23975); details: Compound concentration 10.0 uM
[10] = target: Serine/threonine-protein kinase SIK1 (Homo sapiens) (UniProt P57059); details: Compound concentration 1000.0 nM
[11] = target: Serine/threonine-protein kinase pim-3 (Homo sapiens) (UniProt Q86V86); details: Compound concentration 1000.0 nM
[12] = system: ALK tyrosine kinase receptor (Homo sapiens), Q9UM73 [C1156Y]; details: Compound concentration 1000.0 nM
[13] = system: Leucine-rich repeat serine/threonine-protein kinase 2 (Homo sapiens), Q5S007 [G2019S]; details: Compound concentration 1000.0 nM
[14] = target: Discoidin domain-containing receptor 2 (Homo sapiens) (UniProt Q16832); details: Compound concentration 1000.0 nM
[15] = target: Misshapen-like kinase 1 (Homo sapiens) (UniProt Q8N4C8); details: Compound concentration 1000.0 nM
[16] = target: TGF-beta receptor type-2 (Homo sapiens) (UniProt P37173); details: Compound concentration 1000.0 nM
[17] = target: SRSF protein kinase 3 (Homo sapiens) (UniProt Q9UPE1); details: Compound concentration 1000.0 nM
[18] = target: Proto-oncogene tyrosine-protein kinase Src (Homo sapiens) (UniProt P12931); details: Compound concentration 1000.0 nM
[19] = target: Serine/threonine-protein kinase WNK4 (Homo sapiens) (UniProt Q96J92); details: Compound concentration 1000.0 nM
[20] = target: Fibroblast growth factor receptor 2 (Homo sapiens) (UniProt P21802); details: Compound concentration 1000.0 nM
[21] = system: Phosphatidylinositol 4,5-bisphosphate 3-kinase catalytic subunit alpha isoform (Homo sapiens), P42336 [E545K]; details: Compound concentration 1000.0 nM
[22] = target: Serine/threonine-protein kinase haspin (Homo sapiens) (UniProt Q8TF76); details: Compound concentration 1000.0 nM
[23] = target: Serine/threonine-protein kinase PAK 4 (Homo sapiens) (UniProt O96013); details: Compound concentration 1000.0 nM
[24] = target: Calcium/calmodulin-dependent protein kinase type 1G (Homo sapiens) (UniProt Q96NX5); details: Compound concentration 1000.0 nM
[25] = target: Serine/threonine-protein kinase mTOR (Homo sapiens) (UniProt P42345); details: Compound concentration 1000.0 nM
[26] = target: Serine/threonine-protein kinase VRK2 (Homo sapiens) (UniProt Q86Y07); details: Compound concentration 1000.0 nM
[27] = target: Mitogen-activated protein kinase 10 (Homo sapiens) (UniProt P53779); details: Compound concentration 1000.0 nM
[28] = target: Mitogen-activated protein kinase kinase kinase 12 (Homo sapiens) (UniProt Q12852); details: Compound concentration 1000.0 nM
[29] = target: Serine/threonine-protein kinase 24 (Homo sapiens) (UniProt Q9Y6E0); details: Compound concentration 1000.0 nM
[30] = target: TGF-beta receptor type-1 (Homo sapiens) (UniProt P36897); details: Compound concentration 1000.0 nM
[31] = system: Receptor-type tyrosine-protein kinase FLT3 (Homo sapiens), P36888 [N841I]; details: Compound concentration 1000.0 nM
[32] = target: Ribosomal protein S6 kinase alpha-3 (Homo sapiens) (UniProt P51812); details: Compound concentration 1000.0 nM
[33] = target: Mitogen-activated protein kinase kinase kinase 10 (Homo sapiens) (UniProt Q02779); details: Compound concentration 1000.0 nM
[34] = target: Protein kinase C iota type (Homo sapiens) (UniProt P41743); details: Compound concentration 1000.0 nM
[35] = target: Tyrosine-protein kinase Blk (Homo sapiens) (UniProt P51451); details: Compound concentration 1000.0 nM
[36] = target: Mitogen-activated protein kinase 4 (Homo sapiens) (UniProt P31152); details: Compound concentration 1000.0 nM
[37] = target: Insulin-like growth factor 1 receptor (Homo sapiens) (UniProt P08069); details: Compound concentration 1000.0 nM
[38] = target: Calcium/calmodulin-dependent protein kinase type IV (Homo sapiens) (UniProt Q16566); details: Compound concentration 1000.0 nM
[39] = system: Proto-oncogene tyrosine-protein kinase receptor Ret (Homo sapiens), P07949 [V804L]; details: Compound concentration 1000.0 nM
[40] = target: Maternal embryonic leucine zipper kinase (Homo sapiens) (UniProt Q14680); details: Compound concentration 1000.0 nM
[41] = target: D(1A) dopamine receptor (Homo sapiens) (UniProt P21728); details: Compound concentration 10.0 uM
[42] = target: Serine/threonine-protein kinase 38-like (Homo sapiens) (UniProt Q9Y2H1); details: Compound concentration 1000.0 nM
[43] = target: Casein kinase I isoform gamma-2 (Homo sapiens) (UniProt P78368); details: Compound concentration 1000.0 nM
[44] = target: Calcium-dependent protein kinase 1 (Plasmodium falciparum) (UniProt P62344); details: Compound concentration 1000.0 nM
[45] = target: Serine/threonine-protein kinase Nek4 (Homo sapiens) (UniProt P51957); details: Compound concentration 1000.0 nM

Serine/threonine-protein kinase 24 (Homo sapiens), sequence (Q9Y6E0 whole entry, looked up): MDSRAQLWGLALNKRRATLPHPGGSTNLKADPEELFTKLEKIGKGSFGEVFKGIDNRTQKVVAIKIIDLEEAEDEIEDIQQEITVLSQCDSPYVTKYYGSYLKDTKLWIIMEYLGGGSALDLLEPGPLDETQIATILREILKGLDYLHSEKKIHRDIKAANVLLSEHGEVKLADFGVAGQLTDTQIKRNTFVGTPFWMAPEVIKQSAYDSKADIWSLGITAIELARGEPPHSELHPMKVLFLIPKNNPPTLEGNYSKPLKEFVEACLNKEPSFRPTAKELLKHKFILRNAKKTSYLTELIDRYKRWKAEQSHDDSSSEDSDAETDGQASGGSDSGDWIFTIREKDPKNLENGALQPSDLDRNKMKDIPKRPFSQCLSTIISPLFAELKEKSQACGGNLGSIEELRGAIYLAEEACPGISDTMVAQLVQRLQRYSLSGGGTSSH
Serine/threonine-protein kinase 38-like (Homo sapiens), sequence (Q9Y2H1 2-464 limits assumed): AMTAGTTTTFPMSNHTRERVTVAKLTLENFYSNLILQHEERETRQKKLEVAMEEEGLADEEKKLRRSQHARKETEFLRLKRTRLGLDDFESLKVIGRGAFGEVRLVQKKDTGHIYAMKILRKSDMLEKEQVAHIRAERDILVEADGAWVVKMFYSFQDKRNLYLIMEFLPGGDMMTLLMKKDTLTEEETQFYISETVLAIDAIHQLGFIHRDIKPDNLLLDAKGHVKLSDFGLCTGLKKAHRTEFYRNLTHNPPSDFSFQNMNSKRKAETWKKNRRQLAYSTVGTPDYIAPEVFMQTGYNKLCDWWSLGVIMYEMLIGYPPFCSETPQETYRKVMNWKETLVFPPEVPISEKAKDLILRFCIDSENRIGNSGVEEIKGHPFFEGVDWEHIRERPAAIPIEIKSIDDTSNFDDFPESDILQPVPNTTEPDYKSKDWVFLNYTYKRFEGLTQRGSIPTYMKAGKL
Phosphatidylinositol 4,5-bisphosphate 3-kinase catalytic subunit alpha isoform (Homo sapiens), P42336 [E545K], sequence (P42336 whole entry E545K, canonical isoform): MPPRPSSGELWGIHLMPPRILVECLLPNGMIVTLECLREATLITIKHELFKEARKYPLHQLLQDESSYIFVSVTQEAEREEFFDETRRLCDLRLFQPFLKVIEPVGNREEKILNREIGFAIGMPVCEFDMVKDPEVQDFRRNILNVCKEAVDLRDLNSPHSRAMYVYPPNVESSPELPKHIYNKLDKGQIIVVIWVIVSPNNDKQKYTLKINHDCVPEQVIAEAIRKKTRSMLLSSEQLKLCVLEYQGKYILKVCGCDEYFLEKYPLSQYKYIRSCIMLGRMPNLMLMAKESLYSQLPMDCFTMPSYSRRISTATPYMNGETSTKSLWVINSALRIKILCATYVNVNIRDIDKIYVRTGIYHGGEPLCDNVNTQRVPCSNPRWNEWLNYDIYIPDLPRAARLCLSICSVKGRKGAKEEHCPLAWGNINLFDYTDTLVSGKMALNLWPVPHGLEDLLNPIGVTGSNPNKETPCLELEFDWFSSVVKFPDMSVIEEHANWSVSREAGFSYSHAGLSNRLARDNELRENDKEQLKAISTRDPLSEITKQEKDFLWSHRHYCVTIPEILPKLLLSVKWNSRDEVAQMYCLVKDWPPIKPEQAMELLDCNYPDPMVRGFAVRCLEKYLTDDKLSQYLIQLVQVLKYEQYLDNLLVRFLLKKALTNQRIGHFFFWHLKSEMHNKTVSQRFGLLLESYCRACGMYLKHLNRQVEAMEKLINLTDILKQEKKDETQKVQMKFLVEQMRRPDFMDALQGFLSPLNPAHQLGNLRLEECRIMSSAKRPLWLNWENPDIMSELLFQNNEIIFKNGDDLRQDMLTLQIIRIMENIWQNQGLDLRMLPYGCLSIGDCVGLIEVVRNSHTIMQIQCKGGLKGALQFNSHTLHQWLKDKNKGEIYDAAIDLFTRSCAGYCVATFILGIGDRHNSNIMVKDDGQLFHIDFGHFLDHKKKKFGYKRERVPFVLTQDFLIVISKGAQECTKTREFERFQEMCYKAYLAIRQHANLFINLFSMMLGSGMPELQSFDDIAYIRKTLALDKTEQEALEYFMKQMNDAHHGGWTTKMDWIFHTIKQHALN
Serine/threonine-protein kinase SIK1 (Homo sapiens), sequence (P57059 whole entry): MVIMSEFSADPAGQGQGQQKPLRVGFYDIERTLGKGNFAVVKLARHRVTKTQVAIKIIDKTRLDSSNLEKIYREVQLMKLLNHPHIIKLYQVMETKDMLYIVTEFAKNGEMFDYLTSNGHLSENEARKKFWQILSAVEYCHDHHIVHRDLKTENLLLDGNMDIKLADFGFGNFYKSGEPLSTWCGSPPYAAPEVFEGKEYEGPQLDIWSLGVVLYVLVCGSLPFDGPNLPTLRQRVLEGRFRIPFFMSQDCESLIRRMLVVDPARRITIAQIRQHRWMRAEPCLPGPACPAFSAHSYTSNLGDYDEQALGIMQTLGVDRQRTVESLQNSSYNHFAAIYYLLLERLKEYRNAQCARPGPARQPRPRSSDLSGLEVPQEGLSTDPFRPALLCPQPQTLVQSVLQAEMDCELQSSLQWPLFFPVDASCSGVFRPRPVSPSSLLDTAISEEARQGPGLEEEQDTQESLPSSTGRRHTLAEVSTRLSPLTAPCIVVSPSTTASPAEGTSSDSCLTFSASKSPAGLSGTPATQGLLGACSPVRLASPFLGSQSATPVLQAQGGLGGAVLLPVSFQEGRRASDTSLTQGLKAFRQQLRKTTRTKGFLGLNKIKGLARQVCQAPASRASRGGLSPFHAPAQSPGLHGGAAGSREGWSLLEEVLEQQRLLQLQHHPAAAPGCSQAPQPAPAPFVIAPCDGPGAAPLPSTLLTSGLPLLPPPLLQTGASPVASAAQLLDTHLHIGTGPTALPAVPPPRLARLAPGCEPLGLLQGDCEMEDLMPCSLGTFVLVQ
Fibroblast growth factor receptor 3 (Homo sapiens), sequence (P22607 23-806 limits assumed): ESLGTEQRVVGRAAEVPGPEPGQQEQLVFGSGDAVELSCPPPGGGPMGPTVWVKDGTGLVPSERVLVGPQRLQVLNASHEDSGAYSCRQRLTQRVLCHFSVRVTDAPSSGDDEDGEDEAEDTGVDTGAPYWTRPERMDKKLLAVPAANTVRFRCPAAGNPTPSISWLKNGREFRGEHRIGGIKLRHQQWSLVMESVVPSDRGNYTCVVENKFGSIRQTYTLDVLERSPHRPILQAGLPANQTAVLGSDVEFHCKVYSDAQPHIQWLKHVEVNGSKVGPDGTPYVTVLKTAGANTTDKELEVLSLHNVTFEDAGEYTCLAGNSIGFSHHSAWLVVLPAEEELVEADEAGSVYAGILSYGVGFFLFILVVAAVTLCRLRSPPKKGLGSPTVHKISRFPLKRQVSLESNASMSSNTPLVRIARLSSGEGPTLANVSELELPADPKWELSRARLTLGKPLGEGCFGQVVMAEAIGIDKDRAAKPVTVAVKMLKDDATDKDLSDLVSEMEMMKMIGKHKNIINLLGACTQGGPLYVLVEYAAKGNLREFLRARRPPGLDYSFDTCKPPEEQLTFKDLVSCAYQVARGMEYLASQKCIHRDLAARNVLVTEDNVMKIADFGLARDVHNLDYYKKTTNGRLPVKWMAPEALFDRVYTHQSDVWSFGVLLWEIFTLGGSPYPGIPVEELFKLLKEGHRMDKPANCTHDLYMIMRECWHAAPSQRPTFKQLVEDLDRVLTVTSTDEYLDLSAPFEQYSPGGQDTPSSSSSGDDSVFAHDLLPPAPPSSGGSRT
Mitogen-activated protein kinase kinase kinase 12 (Homo sapiens), sequence (Q12852 whole entry): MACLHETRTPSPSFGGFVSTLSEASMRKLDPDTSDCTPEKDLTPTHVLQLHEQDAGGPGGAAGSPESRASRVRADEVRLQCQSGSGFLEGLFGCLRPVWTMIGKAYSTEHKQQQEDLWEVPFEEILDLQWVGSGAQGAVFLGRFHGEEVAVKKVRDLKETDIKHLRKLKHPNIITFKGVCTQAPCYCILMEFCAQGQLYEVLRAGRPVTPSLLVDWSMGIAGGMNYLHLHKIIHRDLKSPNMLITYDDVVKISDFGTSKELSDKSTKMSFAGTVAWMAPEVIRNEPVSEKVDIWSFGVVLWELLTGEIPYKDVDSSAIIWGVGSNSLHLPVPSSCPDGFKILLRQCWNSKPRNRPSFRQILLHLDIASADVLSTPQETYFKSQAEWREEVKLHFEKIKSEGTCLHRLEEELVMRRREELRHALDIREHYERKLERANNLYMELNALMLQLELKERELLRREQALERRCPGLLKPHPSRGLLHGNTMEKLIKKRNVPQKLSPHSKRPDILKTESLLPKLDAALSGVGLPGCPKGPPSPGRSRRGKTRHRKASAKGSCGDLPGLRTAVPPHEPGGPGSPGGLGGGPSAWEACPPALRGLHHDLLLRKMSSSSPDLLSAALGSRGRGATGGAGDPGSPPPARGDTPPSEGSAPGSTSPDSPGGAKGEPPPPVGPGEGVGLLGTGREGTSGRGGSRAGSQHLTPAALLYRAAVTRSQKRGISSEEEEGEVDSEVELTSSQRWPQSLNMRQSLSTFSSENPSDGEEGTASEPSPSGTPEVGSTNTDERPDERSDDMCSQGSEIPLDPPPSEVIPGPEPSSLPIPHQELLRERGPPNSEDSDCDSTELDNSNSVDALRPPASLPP
Mitogen-activated protein kinase 4 (Homo sapiens), sequence (P31152 whole entry): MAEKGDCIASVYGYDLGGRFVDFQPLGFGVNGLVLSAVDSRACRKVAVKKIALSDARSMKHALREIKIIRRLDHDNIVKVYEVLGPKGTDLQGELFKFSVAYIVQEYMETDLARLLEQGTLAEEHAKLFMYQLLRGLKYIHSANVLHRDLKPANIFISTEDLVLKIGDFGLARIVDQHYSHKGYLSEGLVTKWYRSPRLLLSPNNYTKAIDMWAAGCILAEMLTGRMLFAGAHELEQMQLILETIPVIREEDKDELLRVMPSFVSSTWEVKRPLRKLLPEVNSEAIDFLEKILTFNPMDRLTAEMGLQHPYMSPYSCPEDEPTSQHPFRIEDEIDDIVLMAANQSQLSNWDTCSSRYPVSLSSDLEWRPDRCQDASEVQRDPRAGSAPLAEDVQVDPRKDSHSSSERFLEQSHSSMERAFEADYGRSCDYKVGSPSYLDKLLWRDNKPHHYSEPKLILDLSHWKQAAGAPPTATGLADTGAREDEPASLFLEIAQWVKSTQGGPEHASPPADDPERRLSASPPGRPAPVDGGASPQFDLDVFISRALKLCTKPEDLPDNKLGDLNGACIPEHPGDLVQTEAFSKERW

Cn1cncc1[C@@](O)(COc1ccc(C#N)cc1-c1ccc(OC(F)(F)F)cc1)c1ccc(C#N)cc1 [A-108]
inactive: residual activity [1] 91% | residual activity [2] 78% | residual activity [3] 85% | residual activity [4] 100% | residual activity [5] 100% | residual activity [6] 69% | residual activity [7] 70% | residual activity [8] 100% | inhibition [9] 5.18% | residual activity [10] 100% | residual activity [11] 100% | residual activity [12] 98% | residual activity [13] 91% | residual activity [14] 95% | residual activity [15] 100% | residual activity [16] 96% | residual activity [17] 56% | residual activity [18] 100% | residual activity [19] 85% | residual activity [20] 100% | residual activity [21] 80% | residual activity [22] 100% | residual activity [23] 100% | residual activity [24] 85% | residual activity [25] 100% | residual activity [26] 95% | residual activity [27] 75% | residual activity [28] 100% | residual activity [29] 100% | residual activity [30] 78% | residual activity [31] 100% | residual activity [32] 72% | residual activity [33] 98% | residual activity [34] 100% | residual activity [35] 71% | residual activity [36] 90% | residual activity [37] 100% | residual activity [38] 100% | residual activity [39] 89% | residual activity [40] 79% | inhibition [41] 19% | residual activity [42] 87% | residual activity [43] 64% | residual activity [44] 75% | residual activity [45] 90%

Cn1cncc1[C@](O)(COc1ccc(C#N)cc1-c1ccc(OC(F)(F)F)cc1)c1ccc(C#N)cc1 [ABT-100]
inactive: residual activity [1] 90% | residual activity [2] 97% | residual activity [3] 100% | residual activity [4] 90% | residual activity [5] 83% | residual activity [6] 100% | residual activity [7] 100% | residual activity [8] 89% | inhibition [9] 21.7% | residual activity [10] 95% | residual activity [11] 89% | residual activity [12] 92% | residual activity [13] 92% | residual activity [14] 100% | residual activity [15] 94% | residual activity [16] 100% | residual activity [17] 53% | residual activity [18] 81% | residual activity [19] 100% | residual activity [20] 86% | residual activity [21] 97% | residual activity [22] 100% | residual activity [23] 100% | residual activity [24] 96% | residual activity [25] 57% | residual activity [26] 70% | residual activity [27] 70% | residual activity [28] 100% | residual activity [29] 90% | residual activity [30] 81% | residual activity [31] 91% | residual activity [32] 87% | residual activity [33] 55% | residual activity [34] 100% | residual activity [35] 90% | residual activity [36] 100% | residual activity [37] 92% | residual activity [38] 100% | residual activity [39] 82% | residual activity [40] 74% | inhibition [41] 4.35% | residual activity [42] 65% | residual activity [43] 78% | residual activity [44] 88% | residual activity [45] 100%
